Measured values published in EP0847397B1, “WATER-SOLUBLE C-RING ANALOGUES OF 20 (S)-CAMPTOTHECIN” (DR. REDDY'S RESEARCH FOUNDATION, priority 1996, dated 1997).

Assays:
[1] = system: HCT 15; assay: NCI in vitro 60 human tumor cell line assay; format: cell-based; details: HCT-15, 48 h, read-out: Total Growth Inhibition (TGI)
Protocol: (§1) Each test compound was screened against a battery of 60 human cell lines obtained from eight organs. In a typical procedure, the cell suspensions that were diluted according to the particular cell type and the expected target cell density (5000-40,000 cells per well based on cell growth characteristics) were added into 96-well microtiter plates. Inoculates were allowed a preincubation period of 24h at 37°C. for stabilization. Dilutions at twice the intended test concentrations were added at time zero in 100-µl aliquots to microtiter plate wells. Usually test compounds were evaluated at five 10-fold dilutions. The highest well concentration used in the test is 10^-4M. The cells are then incubated in the presence of drug (the test compound) for further 48h in 5% CO2 atmosphere and 100% humidity. At the end of this time, the adherent cells are fixed to the plate by means of trichloroacetic acid, and after a number of washes, the cell layer is treated with the protein stain Sulforhodamine B. The optical density which is proportional to protein mass, is then read by automated spectrophotometric plate readers at a wavelength of 515 nm. Readings are transferred to a microcomputer and final reports are generated using especially developed software.

[2] = system: MDA-N; assay: NCI in vitro 60 human tumor cell line assay; format: cell-based; details: BREAST, 48h, read-out: Total Growth Inhibition (TGI)
Protocol: (§2) Each test compound was screened against a battery of 60 human cell lines obtained from eight organs. In a typical procedure, the cell suspensions that were diluted according to the particular cell type and the expected target cell density (5000-40,000 cells per well based on cell growth characteristics) were added into 96-well microtiter plates. Inoculates were allowed a preincubation period of 24h at 37°C. for stabilization. Dilutions at twice the intended test concentrations were added at time zero in 100-µl aliquots to microtiter plate wells. Usually test compounds were evaluated at five 10-fold dilutions. The highest well concentration used in the test is 10^-4M. The cells are then incubated in the presence of drug (the test compound) for further 48h in 5% CO2 atmosphere and 100% humidity. At the end of this time, the adherent cells are fixed to the plate by means of trichloroacetic acid, and after a number of washes, the cell layer is treated with the protein stain Sulforhodamine B. The optical density which is proportional to protein mass, is then read by automated spectrophotometric plate readers at a wavelength of 515 nm.

[3] = system: T 47D; assay: NCI in vitro 60 human tumor cell line assay; format: cell-based; details: T47D, 48 h, read-out: Total Growth Inhibition (TGI)
Protocol: as §1

[4] = system: H 226; assay: NCI in vitro 60 human tumor cell line assay; format: cell-based; details: NCI-H226, 48 h, read-out: Total Growth Inhibition (TGI)
Protocol: as §1

[5] = system: KM 12; assay: NCI in vitro 60 human tumor cell line assay; format: cell-based; details: KM12, 48 h, read-out: Total Growth Inhibition (TGI)
Protocol: as §1

[6] = system: CAKI; assay: NCI in vitro 60 human tumor cell line assay; format: cell-based; details: 48 h, read-out: Total Growth Inhibition (TGI)
Protocol: as §1

[7] = system: ACHN; assay: NCI in vitro 60 human tumor cell line assay; format: cell-based; details: 48 h, read-out: Total Growth Inhibition (TGI)
Protocol: as §1

[8] = system: UO 31; assay: NCI in vitro 60 human tumor cell line assay; format: cell-based; details: UO-31, 48 h, read-out: Total Growth Inhibition (TGI)
Protocol: as §1

[9] = system: A 498; assay: NCI in vitro 60 human tumor cell line assay; format: cell-based; details: A498, 48 h, read-out: Total Growth Inhibition (TGI)
Protocol: as §1

[10] = system: RXF 393; assay: NCI in vitro 60 human tumor cell line assay; format: cell-based; details: RXF 393, 48 h, read-out: Total Growth Inhibition (TGI)
Protocol: as §1

[11] = system: HCT 116; assay: NCI in vitro 60 human tumor cell line assay; format: cell-based; details: HCT-116, 48 h, read-out: Total Growth Inhibition (TGI)
[12] = system: MCF 7/ ADR; assay: NCI in vitro 60 human tumor cell line assay; format: cell-based; details: Homo sapiens, NCI/ADR-RES, 48 h, read-out: Total Growth Inhibition (TGI)
Protocol: as §1

[13] = system: HCC 2998; assay: NCI in vitro 60 human tumor cell line assay; format: cell-based; details: Homo sapiens, HCC 2998, 48 h, read-out: Total Growth Inhibition (TGI)
Protocol: as §1

[14] = system: NCI's 60 human tumor cell line assay; assay: cells; format: cell-based; details: 60 cell, 48 h, read-out: IC50 (mean GI50 against NCI's 60 human tumor cell line assay)
Protocol: as §1

[15] = system: 786-O; assay: NCI in vitro 60 human tumor cell line assay; format: cell-based; details: 786-0, 48 h, read-out: Total Growth Inhibition (TGI)
Protocol: as §2

[16] = system: H 522; assay: NCI in vitro 60 human tumor cell line assay; format: cell-based; details: NCI-H522, 48 h, read-out: Total Growth Inhibition (TGI)
Protocol: as §1

[17] = system: SN12C; assay: NCI in vitro 60 human tumor cell line assay; format: cell-based; details: 48 h, read-out: Total Growth Inhibition (TGI)
Protocol: as §1

[18] = system: COLO 205; assay: NCI in vitro 60 human tumor cell line assay; format: cell-based; details: COLO 205, 48 h, read-out: Total Growth Inhibition (TGI)
Protocol: as §1

[19] = system: HOP 92; assay: NCI in vitro 60 human tumor cell line assay; format: cell-based; details: HOP-92, 48 h, read-out: Total Growth Inhibition (TGI)
[20] = system: BT 549; assay: NCI in vitro 60 human tumor cell line assay; format: cell-based; details: BT-549, 48 h, read-out: Total Growth Inhibition (TGI)
Protocol: as §1

[21] = system: H 322M; assay: NCI in vitro 60 human tumor cell line assay; format: cell-based; details: NCI-H322M, 48 h, read-out: Total Growth Inhibition (TGI)
Protocol: as §1

[22] = system: MDA-MB-435; assay: NCI in vitro 60 human tumor cell line assay; format: cell-based; details: MDA-MB-435, 48 h, read-out: Total Growth Inhibition (TGI)
[23] = system: H 23; assay: NCI in vitro 60 human tumor cell line assay; format: cell-based; details: NCI-H23, 48 h, read-out: Total Growth Inhibition (TGI)
Protocol: as §1

[24] = system: H 460; assay: NCI in vitro 60 human tumor cell line assay; format: cell-based; details: Homo sapiens, NCI-H460, 48 h, read-out: Total Growth Inhibition (TGI)
Protocol: as §1

[25] = system: HT 29; assay: NCI in vitro 60 human tumor cell line assay; format: cell-based; details: Homo sapiens, HT-29, 48 h, read-out: Total Growth Inhibition (TGI)
Protocol: as §1

[26] = system: KD 488; assay: In vitro activity against AIDS related Lymphoma (ARL) cell lines (NCI protocol); format: cell-based; details: Homo sapiens, KD 488, ARL cell line
[27] = system: MCF 7; assay: NCI in vitro 60 human tumor cell line assay; format: cell-based; details: MCF7, 48 h, read-out: Total Growth Inhibition (TGI)
Protocol: as §1

[28] = system: HOP 62; assay: NCI in vitro 60 human tumor cell line assay; format: cell-based; details: HOP-62, 48 h, read-out: Total Growth Inhibition (TGI)
[29] = NCI in vitro 60 human tumor cell line assay; format: cell-based; details: 48 h, read-out: Total Growth Inhibition (TGI)
Protocol: as §1

[30] = system: MCF7 / ADR / RES; assay: NCI in vitro 60 human tumor cell line assay; format: cell-based; details: 48 h, read-out: Total Growth Inhibition (TGI)
Protocol: as §1

[31] = result in words, compared with 20(S)-camptothecin; cited from earlier work

CC[C@@]1(O)C(=O)OCc2c1cc1n(c2=O)C(OCC(F)(F)F)c2cc3c([N+](=O)[O-])cccc3nc2-1 (stereo partly shown) [Example 28, 9-Nitro-5-trifluoroethoxycamptothecin]
IC (TGI) [1]: > 30 µM | IC (TGI) [2]: 13.4 µM | IC (TGI) [3]: 1.09 µM | IC (TGI) [4]: 4.3 µM | IC (TGI) [5]: 27.4 µM | IC (TGI) [6]: 0.75 µM | IC (TGI) [7]: 0.37 µM | IC (TGI) [8]: 1.23 µM | IC (TGI) [9]: 1.76 µM | IC (TGI) [10]: 15.9 µM | IC (TGI) [11]: 8.01 µM | IC (TGI) [12]: 1.21 µM | IC (TGI) [13]: 7.65 µM | mean GI50 [14]: 0.46 µM | IC (TGI) [15]: 0.85 µM | IC (TGI) [16]: 13 µM | IC (TGI) [17]: 2.31 µM | IC (TGI) [18]: 9.48 µM | IC (TGI) [19]: 8.44 µM | IC (TGI) [20]: 32 µM | IC (TGI) [21]: 30.2 µM | IC (TGI) [22]: 11.4 µM | IC (TGI) [23]: 0.76 µM | IC (TGI) [24]: 1.22 µM | IC (TGI) [25]: 7.94 µM

CCc1c2c(nc3ccccc13)-c1cc3c(c(=O)n1C2OCCO)COC(=O)[C@]3(O)CC (stereo partly shown) [Example 32, 5-(2'-Hydroxyethoxy)-7-ethylcamptothecin]
IC (TGI) ([26]; 48 h): 2.28 µM | GI50 [26]: 0.246 µM

CC[C@@]1(O)C(=O)OCc2c1cc1n(c2=O)C(OCCOC)c2cc3ccccc3nc2-1 (stereo partly shown) [Example 43, 5-(2'-methoxyethoxy)camptothecin]
IC (TGI) [27]: 17.8 µM | IC (TGI) [4]: 6.89 µM | IC (TGI) [5]: 41.9 µM | IC (TGI) [28]: 3.92 µM | IC (TGI) [29]: 23.6 µM | IC (TGI) [13]: 23.2 µM | mean GI50 [14]: 2.23 µM | IC (TGI) [30]: 9.3 µM | IC (TGI) [18]: 37.3 µM | IC (TGI) [23]: 2.52 µM | IC (TGI) [24]: 14.2 µM | IC (TGI) [25]: 18.9 µM

CC=c1c2cc3ccccc3nc2c2cc3c(c(=O)n12)COC(=O)[C@]3(O)CC [formula 11]
anti-tumor activity [31]: anti-tumor activity comparable to that of 20(S)-camptothecin
